According to paper PMC7224190, “Pharmacological inhibition of PRMT7 links arginine monomethylation to the cellular stress response” (Nature Communications, 2020):

Columns and labels:
Assay in all cases: biochemical
Set-up in all cases: radiometric methyltransferase selectivity assay with tritiated SAM, per cent activity
Conditions in all cases: read-out: % of control remaining
[1] = target: T1, MLL3 (Homo sapiens, UniProt Q8NEZ4)
T1 construct: gene KMT2C
Procedure, shortened: (§1)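 Radiometric methyltransferase assays with ³H-SAM and substrate near apparent Km, compound tested at 1 and 10 μM. Methyl incorporation into biotinylated substrate read by scintillation proximity after guanidine quench; no-compound = 100%, no-enzyme = 0% activity.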

[2] = target: PRC2-EZH1 (Homo sapiens, UniProt Q92800)
Procedure, shortened: as §1

[3] = target: PRDM9 (Homo sapiens, UniProt Q9NQV7)
Chain of PRDM9 (Q9NQV7 whole entry): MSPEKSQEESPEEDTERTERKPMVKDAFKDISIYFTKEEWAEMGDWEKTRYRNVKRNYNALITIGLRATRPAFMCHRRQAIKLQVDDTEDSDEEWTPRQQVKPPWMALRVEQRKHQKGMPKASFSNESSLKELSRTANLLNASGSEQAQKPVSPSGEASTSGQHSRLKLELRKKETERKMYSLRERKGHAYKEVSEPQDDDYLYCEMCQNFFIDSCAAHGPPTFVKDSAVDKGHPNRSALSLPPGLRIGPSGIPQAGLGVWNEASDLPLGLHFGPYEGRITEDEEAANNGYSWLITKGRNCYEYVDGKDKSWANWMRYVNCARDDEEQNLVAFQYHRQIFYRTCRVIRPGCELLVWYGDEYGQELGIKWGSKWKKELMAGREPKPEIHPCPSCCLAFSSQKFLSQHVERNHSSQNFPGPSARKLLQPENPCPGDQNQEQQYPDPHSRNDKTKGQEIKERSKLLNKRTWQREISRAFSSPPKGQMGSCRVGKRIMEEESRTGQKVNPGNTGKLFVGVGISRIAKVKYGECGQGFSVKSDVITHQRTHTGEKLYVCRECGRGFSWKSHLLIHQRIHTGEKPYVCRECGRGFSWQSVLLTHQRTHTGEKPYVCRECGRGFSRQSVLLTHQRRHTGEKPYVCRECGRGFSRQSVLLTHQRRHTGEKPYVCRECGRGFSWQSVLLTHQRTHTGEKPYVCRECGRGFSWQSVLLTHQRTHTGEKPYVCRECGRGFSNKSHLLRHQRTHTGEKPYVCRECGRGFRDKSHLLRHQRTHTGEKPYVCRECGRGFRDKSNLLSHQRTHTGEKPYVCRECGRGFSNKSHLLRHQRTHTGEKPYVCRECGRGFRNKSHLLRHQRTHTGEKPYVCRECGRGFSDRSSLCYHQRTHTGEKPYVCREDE
Procedure, shortened: as §1

[4] = target: T2, PRMT4 (Homo sapiens, UniProt Q86X55)
T2 construct: gene CARM1
T2 sequence (Q86X55 1-608): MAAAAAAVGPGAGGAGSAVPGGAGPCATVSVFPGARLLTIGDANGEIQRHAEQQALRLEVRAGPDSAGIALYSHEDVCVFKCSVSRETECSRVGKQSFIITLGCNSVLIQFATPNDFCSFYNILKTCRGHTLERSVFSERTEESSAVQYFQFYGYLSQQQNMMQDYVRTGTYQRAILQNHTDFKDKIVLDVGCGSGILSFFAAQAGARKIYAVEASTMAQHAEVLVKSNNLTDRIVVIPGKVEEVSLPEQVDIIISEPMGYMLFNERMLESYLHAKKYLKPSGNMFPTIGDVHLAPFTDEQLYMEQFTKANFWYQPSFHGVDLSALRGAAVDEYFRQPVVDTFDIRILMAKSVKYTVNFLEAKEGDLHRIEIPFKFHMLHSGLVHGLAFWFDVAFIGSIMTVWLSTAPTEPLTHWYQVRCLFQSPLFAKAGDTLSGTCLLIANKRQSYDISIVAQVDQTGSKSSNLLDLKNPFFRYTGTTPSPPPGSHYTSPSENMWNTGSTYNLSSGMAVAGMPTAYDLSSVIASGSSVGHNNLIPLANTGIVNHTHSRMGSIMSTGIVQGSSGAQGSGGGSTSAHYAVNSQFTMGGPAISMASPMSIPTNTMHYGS
Procedure, shortened: as §1

[5] = target: SETD2 (Homo sapiens, UniProt Q9BYW2)
Chain of SETD2 (Q9BYW2 whole entry): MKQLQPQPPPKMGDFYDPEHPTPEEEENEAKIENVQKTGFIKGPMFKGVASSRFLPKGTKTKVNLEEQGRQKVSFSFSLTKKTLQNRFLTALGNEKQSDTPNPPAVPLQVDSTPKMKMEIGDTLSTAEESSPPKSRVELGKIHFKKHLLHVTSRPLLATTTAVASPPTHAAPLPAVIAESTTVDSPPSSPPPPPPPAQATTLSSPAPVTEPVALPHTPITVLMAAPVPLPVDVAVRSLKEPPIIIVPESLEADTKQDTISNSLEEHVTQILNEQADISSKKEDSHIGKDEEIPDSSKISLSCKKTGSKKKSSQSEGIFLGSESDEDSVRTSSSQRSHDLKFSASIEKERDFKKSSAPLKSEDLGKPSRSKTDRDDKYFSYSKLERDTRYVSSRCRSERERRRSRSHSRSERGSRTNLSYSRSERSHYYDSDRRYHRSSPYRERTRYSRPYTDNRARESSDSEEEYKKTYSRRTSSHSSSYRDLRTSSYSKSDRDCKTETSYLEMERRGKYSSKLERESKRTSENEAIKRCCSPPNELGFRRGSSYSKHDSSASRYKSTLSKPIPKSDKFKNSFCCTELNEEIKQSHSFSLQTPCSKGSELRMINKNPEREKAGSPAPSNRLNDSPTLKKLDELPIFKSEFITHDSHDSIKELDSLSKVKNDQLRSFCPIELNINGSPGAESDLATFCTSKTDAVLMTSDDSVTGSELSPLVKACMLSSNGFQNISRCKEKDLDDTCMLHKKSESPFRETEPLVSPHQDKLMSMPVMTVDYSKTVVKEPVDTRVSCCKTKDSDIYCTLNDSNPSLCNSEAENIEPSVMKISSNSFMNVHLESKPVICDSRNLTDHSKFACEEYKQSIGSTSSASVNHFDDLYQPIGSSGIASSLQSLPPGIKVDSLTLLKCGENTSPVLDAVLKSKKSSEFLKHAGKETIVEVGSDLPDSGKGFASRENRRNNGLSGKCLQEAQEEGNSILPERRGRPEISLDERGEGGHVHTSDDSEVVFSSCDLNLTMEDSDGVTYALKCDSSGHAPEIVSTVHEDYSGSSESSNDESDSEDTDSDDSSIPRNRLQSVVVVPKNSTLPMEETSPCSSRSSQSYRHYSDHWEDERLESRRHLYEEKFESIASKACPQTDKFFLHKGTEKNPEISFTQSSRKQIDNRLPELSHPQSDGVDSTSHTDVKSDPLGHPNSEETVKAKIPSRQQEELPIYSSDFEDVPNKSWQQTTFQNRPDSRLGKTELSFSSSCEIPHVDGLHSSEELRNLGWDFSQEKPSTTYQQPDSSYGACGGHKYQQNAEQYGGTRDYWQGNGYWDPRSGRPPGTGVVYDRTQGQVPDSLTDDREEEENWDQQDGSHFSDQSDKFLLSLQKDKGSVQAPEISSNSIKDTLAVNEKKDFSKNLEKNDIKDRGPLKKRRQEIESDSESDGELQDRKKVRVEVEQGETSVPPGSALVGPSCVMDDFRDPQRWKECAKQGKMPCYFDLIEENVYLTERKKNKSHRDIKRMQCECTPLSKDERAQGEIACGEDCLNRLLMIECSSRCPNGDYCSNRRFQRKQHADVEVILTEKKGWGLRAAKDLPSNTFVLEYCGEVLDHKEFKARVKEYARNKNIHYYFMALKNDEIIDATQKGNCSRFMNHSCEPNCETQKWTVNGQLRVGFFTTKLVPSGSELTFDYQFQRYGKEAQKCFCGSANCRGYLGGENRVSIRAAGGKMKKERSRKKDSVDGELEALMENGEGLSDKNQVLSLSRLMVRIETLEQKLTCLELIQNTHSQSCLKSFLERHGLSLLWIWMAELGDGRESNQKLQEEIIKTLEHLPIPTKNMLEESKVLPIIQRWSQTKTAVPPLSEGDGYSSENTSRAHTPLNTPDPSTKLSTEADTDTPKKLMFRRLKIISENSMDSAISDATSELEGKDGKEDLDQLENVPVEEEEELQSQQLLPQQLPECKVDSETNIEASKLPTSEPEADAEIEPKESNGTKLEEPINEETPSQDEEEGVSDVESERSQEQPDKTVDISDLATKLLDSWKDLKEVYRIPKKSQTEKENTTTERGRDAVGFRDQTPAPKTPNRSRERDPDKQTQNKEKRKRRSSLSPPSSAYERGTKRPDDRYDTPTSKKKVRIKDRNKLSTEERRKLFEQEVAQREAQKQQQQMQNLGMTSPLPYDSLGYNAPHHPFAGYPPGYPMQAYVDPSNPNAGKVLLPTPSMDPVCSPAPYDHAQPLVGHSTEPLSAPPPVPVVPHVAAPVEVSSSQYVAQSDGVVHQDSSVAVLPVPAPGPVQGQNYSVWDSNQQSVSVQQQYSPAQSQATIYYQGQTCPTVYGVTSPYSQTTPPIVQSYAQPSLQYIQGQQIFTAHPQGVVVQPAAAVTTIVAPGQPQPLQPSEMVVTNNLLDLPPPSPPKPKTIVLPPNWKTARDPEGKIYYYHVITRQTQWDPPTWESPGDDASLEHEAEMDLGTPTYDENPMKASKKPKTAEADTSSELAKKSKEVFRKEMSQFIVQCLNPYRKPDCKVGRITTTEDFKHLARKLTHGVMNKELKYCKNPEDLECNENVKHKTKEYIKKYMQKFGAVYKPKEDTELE
Procedure, shortened: as §1

[6] = target: T3, SUV39H1 (Homo sapiens, UniProt O43463)
T3 sequence (O43463 1-412): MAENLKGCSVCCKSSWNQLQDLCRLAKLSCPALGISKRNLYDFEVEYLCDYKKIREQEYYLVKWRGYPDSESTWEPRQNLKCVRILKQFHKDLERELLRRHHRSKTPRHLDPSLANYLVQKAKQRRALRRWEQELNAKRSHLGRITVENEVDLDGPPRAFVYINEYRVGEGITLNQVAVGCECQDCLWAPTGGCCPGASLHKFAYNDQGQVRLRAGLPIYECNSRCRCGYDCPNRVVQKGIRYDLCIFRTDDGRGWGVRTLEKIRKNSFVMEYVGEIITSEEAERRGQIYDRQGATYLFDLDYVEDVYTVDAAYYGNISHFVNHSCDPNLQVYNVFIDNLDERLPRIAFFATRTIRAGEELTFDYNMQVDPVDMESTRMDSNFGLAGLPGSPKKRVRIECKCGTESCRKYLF
Procedure, shortened: as §1

Which remaining activity at 1 µM [1] does the source give for Nc1ncnc2c1ncn2[C@@H]1O[C@H](CSCCCCNCc2cccc(-c3ccc(Cl)cc3)c2)[C@@H](O)[C@H]1O [SGC8158] here?
Its remaining activity at 1 µM is 105%.

And the remaining activity at 10 µM [1]?
Its remaining activity at 10 µM is 105%.

And the remaining activity at 1 µM [2]?
Its remaining activity at 1 µM is 106%.

And the remaining activity at 10 µM [2]?
Its remaining activity at 10 µM is 100%.

And the remaining activity at 1 µM [3]?
Its remaining activity at 1 µM is 106%.

What about the remaining activity at 10 µM [3] of the same molecule?
The remaining activity at 10 µM was 96%.

What about the remaining activity at 1 µM [4] of the same molecule?
The remaining activity at 1 µM was 7%.

What about the remaining activity at 10 µM [4] of the same molecule?
Its remaining activity at 10 µM is 0%.

What about the remaining activity at 1 µM [5] of the same molecule?
The remaining activity at 1 µM was 95%.

What about the remaining activity at 10 µM [5] of the same molecule?
Its remaining activity at 10 µM is 86%.

What about the remaining activity at 1 µM [6] of the same molecule?
Its remaining activity at 1 µM is 94%.

And the remaining activity at 10 µM [6]?
Its remaining activity at 10 µM is 90%.

Which results are given for CC1(C)O[C@@H]2[C@H](O1)[C@@H](CSCCCCNCc1cccc(-c3ccc(Cl)cc3)c1)O[C@H]2n1cnc2c(N)ncnc21 [SGC8158N]?
remaining activity at 1 µM [1]: 99%; remaining activity at 10 µM [1]: 100%; remaining activity at 1 µM [2]: 92%; remaining activity at 10 µM [2]: 93%; remaining activity at 1 µM [3]: 101%; remaining activity at 10 µM [3]: 98%; remaining activity at 1 µM [4]: 101%; remaining activity at 10 µM [4]: 100%; remaining activity at 1 µM [5]: 103%; remaining activity at 10 µM [5]: 97%; remaining activity at 1 µM [6]: 98%; remaining activity at 10 µM [6]: 78%
